From PubChem BioAssay (NCI)
Where “and” joins values, the source holds several entries; their conditions need not be identical. Equal values may be shown once.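 48-hour exposure; five concentrations; linearly interpolated endpoints. GI50 is the concentration that inhibits growth by half. TGI is the concentration that stops growth completely.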

Legend:
Assay in all cases: NCI tumour cell line growth inhibition, 48 h
M14 melanoma = test system: M14 melanoma
SF-268 CNS = test system: SF-268 CNS
KM12 colon = test system: KM12 colon
MALME-3M melanoma = test system: MALME-3M melanoma
SF-295 CNS = test system: SF-295 CNS
SF-539 CNS = test system: SF-539 CNS
NCI-H226 lung = test system: NCI-H226 lung
K-562 leukemia = test system: K-562 leukemia
SK-MEL-5 melanoma = test system: SK-MEL-5 melanoma
HCT-116 colon = test system: HCT-116 colon

Compound	GI50 (M14 melanoma)	TGI (M14 melanoma)	GI50 (SF-268 CNS)	TGI (SF-268 CNS)	GI50 (KM12 colon)	TGI (KM12 colon)	GI50 (MALME-3M melanoma)	TGI (MALME-3M melanoma)	GI50 (SF-295 CNS)	TGI (SF-295 CNS)	GI50 (SF-539 CNS)	TGI (SF-539 CNS)	GI50 (NCI-H226 lung)	TGI (NCI-H226 lung)	GI50 (K-562 leukemia)	TGI (K-562 leukemia)	GI50 (SK-MEL-5 melanoma)	TGI (SK-MEL-5 melanoma)	GI50 (HCT-116 colon)	TGI (HCT-116 colon)
C=C1C(=O)O[C@@H]2C[C@@H]1CC[C@]1(C)O[C@H]1CC[C@@]1(C)O[C@@H]1CC[C@@]2(C)O	34.2 µM	> 100 µM	> 100 µM	> 100 µM	> 100 µM	> 100 µM	22.3 µM	71.2 µM	26.7 µM	75.7 µM	35.1 µM	> 100 µM	26.7 µM	86.2 µM	19.5 µM	> 100 µM	14 µM	34.8 µM	23.1 µM	65.9 µM
CCOC(=N)CC(=O)Nc1ccc(Cl)cc1	–	> 100 µM	–	> 100 µM	–	> 100 µM	–	> 100 µM	–	> 100 µM	–	> 100 µM	–	> 100 µM	–	> 100 µM	–	> 100 µM	–	> 100 µM
O=C1/C(=C/c2cccc([N+](=O)[O-])c2)COc2ccc(O)c(O)c21	1.81 µM	4.27 µM	1.79 µM	4.3 µM	1.68 µM	3.4 µM	1.49 µM	3.04 µM	3.27 µM	11.2 µM	1.61 µM	3.57 µM	2.35 µM	8.33 µM	0.506 µM	7.22 µM	1.55 µM	2.95 µM	1.14 µM	2.7 µM
CCn1c(=O)c(-c2ccn[nH]2)cc2c(C)nc(N)nc21	1.23 µM	30.6 µM	1.53 µM	> 100 µM	3.3 µM	> 100 µM	0.167 µM	1.33 µM	0.559 µM	3.68 µM	1.77 µM	10.1 µM	2.41 µM	> 100 µM	14.7 µM	> 100 µM	1.38 µM	6.3 µM	2.36 µM	> 100 µM
CCC1=C(C)/C(=C/c2[nH]c(C)c(C(=O)CCCCC(=O)OC)c2C)N=C1c1ccc[nH]1	18.7 µM	58.8 µM	7.15 µM	47.7 µM	16.6 µM	> 77.4 µM	13.7 µM	45.1 µM	18.6 µM	42 µM	13.2 µM	27.1 µM	17.6 µM	51.3 µM	3.47 µM	16.7 µM	7.8 µM	20.8 µM	7.37 µM	> 50.1 µM
CC(C)(C)[Si](C)(C)OCC1CCC(n2cnc3c(NC(=O)c4ccccc4)ncnc32)O1 (centres undefined)	–	30.3 µM	–	33.4 µM	–	31.3 µM	–	34.3 µM	–	35.8 µM	–	32.9 µM	–	34.6 µM	–	39.5 µM	–	23.7 µM	–	33.5 µM
Cc1[nH]c(=O)[nH]c(=O)c1N(CCF)CCCl	–	767 µM	192 µM and 329 µM	651 µM and 1120 µM and 1100 µM	280 µM and 508 µM	824 µM and 1330 µM and 719 µM	219 µM and 393 µM	410 µM and 757 µM and 721 µM	> 25 µM and 402 µM	600 µM and > 25 µM and 1140 µM	499 µM and 153 µM	478 µM and 1680 µM and 768 µM	249 µM	584 µM and 1960 µM and 1390 µM	403 µM and 215 µM	757 µM and 1350 µM and 1110 µM	388 µM	394 µM and 788 µM and 699 µM	243 µM and 491 µM	662 µM and 1570 µM and 1010 µM
COc1cc(/C=C(/C)[N+](=O)[O-])ccc1O	1.83 µM and 1.85 µM	3.79 µM and 3.6 µM	2.73 µM and 1.92 µM	6.94 µM and 4.51 µM	2.97 µM and 1.93 µM	7.52 µM and 3.75 µM	2 µM and 1.53 µM	4.08 µM and 3.58 µM	9.45 µM and 2.77 µM	22.4 µM and 8.89 µM	2 µM and 1.81 µM	4 µM and 3.68 µM	2.58 µM and 4.07 µM	6.96 µM and 14.2 µM	1.47 µM	> 100 µM	1.91 µM and 1.9 µM	3.92 µM and 3.57 µM	1.65 µM and 1.71 µM	3.12 µM and 3.29 µM
COC(=O)/C=C/c1cc(O)c2c(c1)C(C(=O)OC)C(c1ccc(O)c(O)c1)O2 (centres undefined)	0.131 µM and 0.0279 µM	> 41.3 µM	0.721 µM and 0.0833 µM	> 89.8 µM	0.395 µM	20.7 µM and 16.6 µM	12.5 µM and 17.7 µM	62 µM and 86.1 µM	0.344 µM and 0.143 µM	15.4 µM and 9.85 µM	0.255 µM	0.72 µM and 1.19 µM	2.93 µM and 3.86 µM	24.3 µM and > 100 µM	< 0.0419 µM and 0.0462 µM	> 100 µM	< 0.0455 µM and 0.0566 µM	5.45 µM and 4.29 µM	0.104 µM and 0.0405 µM	> 100 µM
O=C(Nc1ccc(S(=O)(=O)Nc2nccs2)cc1)c1cccnc1Nc1cccc(Cl)c1	15.7 µM	34.9 µM	12.8 µM	31.5 µM	10.3 µM	22.9 µM	16.9 µM	48.1 µM	16.5 µM	43.5 µM	16.2 µM	44.5 µM	21.9 µM	98.7 µM	10.4 µM	41.1 µM	11.3 µM	23.5 µM	12.2 µM	25.2 µM
C=C1C(=O)O[C@H]2[C@H]1CC/C(COC(=O)C(=O)c1c[nH]c3ccccc13)=C\CC[C@@]1(C)O[C@@H]21	2 µM	5.19 µM	2.39 µM	7.68 µM	3.28 µM	13.4 µM	2.09 µM	4.33 µM	11.8 µM	24.9 µM	1.75 µM	3.76 µM	1.98 µM	3.89 µM	2.28 µM	9.5 µM	2.06 µM	4.13 µM	1.68 µM	3.24 µM
O=C1c2ccccc2-c2c1c1ccccc1c(=O)n2Cc1ccco1	–	> 100 µM	–	> 100 µM	–	> 100 µM	–	> 100 µM	–	> 100 µM	–	> 100 µM	–	> 100 µM	–	> 100 µM	–	> 100 µM	–	> 100 µM
CCCN1C(=O)C/C(=C\C(C)=O)Nc2ccccc21	–	> 100 µM	–	> 100 µM	–	> 100 µM	–	> 100 µM	–	> 100 µM	–	> 100 µM	–	> 100 µM	–	> 100 µM	–	> 100 µM	–	> 100 µM
Cc1ccc(C)c(NC(=O)C(=O)C(c2cnc3ccc([N+](=O)[O-])cc3n2)[N+](=O)[O-])c1 (centres undefined)	–	> 100 µM	–	> 100 µM	–	> 100 µM	–	> 100 µM	–	> 100 µM	–	> 100 µM	–	> 100 µM	–	> 100 µM	–	> 100 µM	–	> 100 µM
